Like-named read-outs stand apart in the source and are kept apart here.

The source of these data is patent US5854244A, “Melamine derivatives for use in the treatment of cancer” (priority 1992, dated 1998).

Data set [1] relates to PXN65 Xenografts. Description: In vivo activity against PXN65 ovarian cancer xenografts. Details: species or system mice. The conditions noted are these: for time to tumour regression: treated mice. As for the experimental part: CB7646 was tested in vivo against ovarian cancer xenografts of the PXN65 cell line transplanted into mice, substantially in accordance with Harrap et al, Annals of Oncology, 1990, 1;65-76. PXN65 is a cisplatin-sensitive line.

A short description of data set [2]: Lethality (LD50) in mice. The conditions noted are these: mouse, in vivo. The text has this: (§1) The anti-tumour activity of CB 7646 prepared in accordance with Example 1 against ADJ/PC6 tumour in mice were compared with that of trimelamol. An implant of 1 mm^3 of tumour was made on day 1. On day 20, animals bearing tumours of comparative size were placed into groups of 4 and treated with drug on 5 consecutive days, and then left until day 30. Tumours from the treated and controls were dissected and weighed as a measure of tumour growth. Compounds were given in 5% DMSO/dextrose.
(§2) Example 6 was repeated to obtain more precise LD50 values.

For data set [3], the system named is Walker 256 rat mammary carcinoma. Description: MTT cytotoxicity assay, Walker 256. It is filed as cell-based. As for the experimental part: (§3) The cytotoxicity of CB7646 and CB7683 was compared with trimelamol against mammalian tumour cell lines using the MTT assay. […] Cell lines were grown in culture with continual drug exposure. […] Figures in parenthesis refer to standard deviation or ± values for 2 or more measurements.
A general note: Formazan colour is commonly taken as a measure of viable cells.

Data set [4] in a line: Dimer/polymer formation in solution (overnight standing). The format is physicochemical. To be noted: aqueous solution, 4-5 mg/ml, overnight (14-16 hours), room temperature. As for the experimental part:
(ii) Dimer/polymer Formation in Solution
An aqueous solution of CB7646 and trimelamol in 4ml aliquots at a concentration of 4-5 mg/ml was left to stand overnight (14-16 hours) at room temperature.

A short description of data set [5]: Stability in solution (half-life by HPLC).
Description: Compounds were dissolved in DMSO to a concentration of 50 mM. Aliquots were then dispersed into the appropriate medium to give a final concentration of 100 μM in a volume of about 10 ml. […] (to simulate room temperature) or at 37° C. in water, 0.9% NaCl or 5% dextrose. Aliquots were removed from each preparation at intervals to assess their stability (i.e. half-life, T^1/2) which was measured using HPLC analysis. This entailed an isocratic elution using a mobile phase comprising 10% acetonitrile, 90% 0.05M ammonium bicarbonate. The 15 cm column was packed with C8 octyl Spherisorb material. The column was encased in a cooling cabinet which was maintained at 14°-17° C. Standards of freshly prepared solutions were run throughout the analysis period by way of controls.
T^1/2 measurements were read from a semi-logarithmic plot of peak area (y) versus time (x).
Data set [6] concerns CH1 human epithelial ovarian cancer. Description: MTT cytotoxicity assay, CH1. To be noted: continual drug exposure, parenthesis = standard deviation or ± values. It is filed as cell-based. As for the experimental part: (§4) The cytotoxicity of CB7646 and CB7683 was compared with trimelamol against mammalian tumour cell lines using the MTT assay. This assay is based upon the selective ability of living but not dead cells to reduce the tetrazolium salt MTT (3-[4,5-dimethylthiazol-2-yl]-25-diphenyl tetrazolium bromide) to purple formazan (Mosmann et al, 1983, J. Immun. Methods 65; 55-63; Carmichael et al (1987) Cancer Res. 47; 936-942). Cell lines were grown in culture with continual drug exposure. The IC50 values (in μm) of the compounds (i.e. concentration giving 50% inhibition of cell growth as compared with untreated control) were determined, and are shown in Table 2. Figures in parenthesis refer to standard deviation or ± values for 2 or more measurements.
CH1, 41M human epithelial ovarian cancer

In data set [7] the test system is H69 human small cell lung cancer. Description: MTT cytotoxicity assay, H69. The format is cell-based. As for the experimental part: as §3
Data set [8] has as its system PC6 murine plasmacytoma. Description: MTT cytotoxicity assay, PC6. The format is cell-based. To be noted: Mus musculus, continual drug exposure, parenthesis = standard deviation or ± values. As for the experimental part:
as §4
PC6 murine plasmacytoma

Data set [9] concerns ADJ/PC6 tumour. Description: Antitumour activity towards the ADJ/PC6 tumour in mice. It is filed as in vivo. The conditions noted are these: for % Inhibition (Tumour wt as % of Control Value): 5 consecutive days, day 30; for T.I.: Example 7 (repeat of Example 6); for ED90: Mus musculus.
From the text: as §1, §2

Data set [10] concerns ovarian carcinomas. The conditions noted are these: cited from earlier work.
The conditions of data set [11]: Judson et al 1989, 1991; cited from earlier work.
[12] abbreviates: Example 7 (repeat of Example 6).
Setting [13] is: WALKER 256, MTT, continual drug exposure, parenthesis = standard deviation or ± values, read-out: IC50.
Setting [14] is: MTT, continual drug exposure, parenthesis = standard deviation or ± values, read-out: IC50.
Where [15] appears, read: ADJ/PC6, Example 7 (repeat of Example 6).

For the molecule `CNc1nc(N(C)CO)nc(N(C)CO)n1` [CB7646, 2,4-Bis[(hydroxymethyl) (methyl)amino]6-methylamino-1,3,5-triazine], in data set [1] (15 mg/kg, 20 doses), the Deaths is reported as 0. The “GD (Growth delay)” value in data set [1] (15 mg/kg, 20 doses) was > 140 days. Moreover, the “efficacy (summary)” value in [1] (PXN65 xenografts, relative to trimelamol) is recorded as “comparable efficacy to trimelamol”. The “time to tumour regression” value in data set [1] (PXN65 xenografts) is listed as ≤ 28 days. Besides, the median lethal dose (LD50) was > 100 mg/kg in data set [2] (Example 6) and 142 mg/kg in data set [2] (setting [12]). Moreover, the IC50 in data set [3] (setting [13]) stood at 10.7 µM; in data set [3] (Walker 256, CB7646 prepared by recrystallisation method of Example 2, read-out: IC50 (repeat, recrystallised preparation)) it was 10.5 µM; in data set [6] it was 35.8 µM; in data set [7] (CB7646 prepared by recrystallisation method of Example 2, read-out: IC50 (repeat, recrystallised preparation)), 16.5 µM; in data set [7] (setting [14]), 14.7 µM; in [8] it was 25.1 µM. For the same molecule, the “Dimer/polymer formation (precipitate)” value in [4] is on record as “did not form a precipitate”. Moreover, the half-life at 100 µM in [5] (0.9% nacl, pH 5, T^1/2, 0.9% NaCl, pH 5.0, r.t.) is 16 h; in data set [5] (5% dextrose, pH 4, T^1/2, 5% Dextrose, pH 4.0, r.t.), 22 h; in data set [5] (deionised water, pH 7.5, T^1/2, Deionised water, pH 7.5, r.t.), 18 h; in data set [5] (deionised water, pH 7.5, T^1/2, deionised water, pH 7.5, 37 °C) it was 3 h. The “stability (summary of Table 1)” value in [5] (relative to trimelamol) is recorded as “superior stability”. Moreover, the “% Inhibition (Tumour wt as % of Control Value)” value in [9] (3.25 mg/kg) is 5.6%; in data set [9] (6.25 mg/kg), -1.0%; in data set [9] (12.5 mg/kg), 13.7%; in data set [9] (25 mg/kg) it was 5.6%; in data set [9] (50 mg/kg), 76.8%; in data set [9] (100 mg/kg), 98.0%. The “Therapeutic Index (TI)” value in data set [9] (ADJ/PC6 tumour, Example 6) was > 1.4. For the same molecule, in data set [9], the T.I. is 4.6. Moreover, the ED90 was 74 mg/kg in [9] (ADJ/PC6, ADJ/PC6 tumour, Example 6) and 31 mg/kg in data set [9] (setting [15]).
As for `OCN(CC(F)(F)F)c1nc(NCC(F)(F)F)nc(N(CO)CC(F)(F)F)n1` [CB7683, 2,4-Bis[(hydroxymethyl)(2,2,2 trifluoroethyl)amino]-6-(2,2,2-trifluoroethyl)amino-1,3,5-triazine], the IC50 was determined as 40.9 µM in data set [6], 8.9 µM in data set [7] (setting [14]) and 31.6 µM in [8].
Turning to `CN(CO)c1nc(N(C)CO)nc(N(C)CO)n1` [Trimelamol, 2,4,6-tris{(hydroxymethyl) (methyl)amino}-1,3,5-triazine, reference compound], the Deaths in data set [1] (15 mg/kg, 20 doses) is on record as 0; in data set [1] (30 mg/kg, 5 doses), 0. Also, the “GD (Growth delay)” value was > 170 days in data set [1] (15 mg/kg, 20 doses) and > 273 days in data set [1] (30 mg/kg, 5 doses). Also, the “time to tumour regression” value in data set [1] (PXN65 xenografts) is recorded as ≤ 28 days. The molecule also showed an LD50 in data set [2] (setting [12]) of 70 mg/kg. The IC50 was determined as 9.4 µM in data set [3] (setting [13]), 23.4 µM in [6], 8.5 µM in [7] (setting [14]) and 12.9 µM in data set [8]. Moreover, the “Dimer/polymer formation (precipitate)” value in data set [4] is “formed a heavy precipitate”. Moreover, the half-life at 100 µM in data set [5] (0.9% nacl, pH 4.9) was found to be 4.55 h; in data set [5] (5% dextrose, pH 4), 5.8 h; in data set [5] (deionised water, pH 7.5), 2 h. The “half-life of trimelamol activity in humans” value in [10] (humans, Judson et al 1989) is listed as “short”. The clinical activity entry in data set [10] (particularly against ovarian carcinomas) was “clinically active”. The “polymerisation during Phase I and II clinical trials” value in data set [11] is recorded as “proved problematic”. Moreover, the “% Inhibition (Tumour wt as % of Control Value)” value in data set [9] (3.25 mg/kg) was 0%; in [9] (6.25 mg/kg), 18.2%; in data set [9] (12.5 mg/kg), 13.7%; in data set [9] (25 mg/kg), 45.5%; in data set [9] (50 mg/kg), 83.9%; in data set [9] (100 mg/kg) it was 96.0%. In data set [9], this molecule displayed a T.I. of 2.9. The ED90 in data set [9] (setting [15]) was found to be 24 mg/kg.

The LD50 is the dose expected to kill half of the subjects tested. High values mean lower toxicity, low ones greater toxicity. For orientation: half-life means the time in which the quantity being followed falls by half. A higher half-life goes with slow loss.
